# Test results taken from PubChem BioAssay (NCI).
#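 Interpolation was linear, between the two tested concentrations surrounding the appropriate level; five concentrations were tested over 48 hours in 96-well plates. GI50 marks 50% less growth. The concentration for full growth arrest is given as TGI.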
# Legend:
# Assay in all cases: NCI anticancer screen, dose series, 48 h
# [1] = tested on: PC-3 prostate
# [2] = tested on: SN12C renal
# [3] = tested on: T-47D breast
# [4] = tested on: KM12 colon
# [5] = tested on: ACHN renal
# [6] = tested on: UACC-62 melanoma
# [7] = tested on: SK-MEL-5 melanoma
# [8] = tested on: SW-620 colon
# [9] = tested on: SNB-75 CNS
Compound,TGI [1] [µM],TGI [2] [µM],TGI [3] [µM],TGI [4] [µM],TGI [5] [µM],TGI [6] [µM],TGI [7] [µM],TGI [8] [µM],TGI [9] [µM],GI50 [1] [µM],GI50 [2] [µM],GI50 [3] [µM],GI50 [4] [µM],GI50 [9] [µM],GI50 [5] [µM],GI50 [6] [µM],GI50 [7] [µM],GI50 [8] [µM]
Cc1ccc(NC(=O)C(Cc2c[nH]c3ccccc23)NC(=O)Oc2ccccc2)cc1C (centres undefined),> 100,> 100,> 100,> 100,> 100,> 100,> 100,> 100,,,,,,,,,,
CCCC(O)c1cn(C(NC(=O)c2ccccc2)P(=O)(OCC)OCC)nn1 (centres undefined),> 100,> 100,> 100,> 100,> 100,> 100,> 100,> 100,> 100,,,,,,,,,
COC12CCCN1c1ccn(Cc3ccccc3)c(=O)c1C2=O (centres undefined),> 100,> 100,> 100,> 100,> 100,> 100,> 100,> 100,> 100,,,,,,,,,
Fc1ccc(N=C/C=C/Nc2ccc(F)cc2)cc1,22.3,28.3,29.4,19.9,15,16.8,22.3,20.7,28.4,,,,,,,,,
Nc1ccccc1.[C-]#[O+].[C-]#[O+].[C-]#[O+].[C-]#[O+].[C-]#[O+].[Cr],> 10,> 10,> 10,> 10,> 10,9.64,3.34,> 10,> 10,5.87,3.9,2.62,7.97,4.05,4.84,2.42,1.53,> 10
COc1cc2oc(=O)cc(C)c2cc1O,> 100,> 100,> 100,> 100,> 100,,> 100,> 100,> 100,,,,,,,,,
COC(=O)C1=C(OC(=O)/C=C/c2ccccc2)C(C(=O)OC)[C@@]2(O)[C@@H](C(=O)OC)[C@H](C)C[C@@H]1[C@@H]2C(=O)OC (some centres undefined),> 100,41.7,84.4,> 100,> 100,33.1,87.9,> 100,73.1,,,,,,,,,
O=c1sc2c(s1)-c1sc(=O)sc1SS2,> 100,> 100,> 100,> 100,> 100,> 100,> 100,> 100,> 100,,,,,,,,,
COc1cc2cc(C(=O)N3CC(CCl)c4c3cc(NC(=O)OCc3ccc([N+](=O)[O-])cc3)c3ccccc43)[nH]c2c(OC)c1OC (centres undefined),> 100,> 100,> 100,> 74.2,> 34.5,> 100,> 100,> 100,67.3,,,,,,,,,
c1ccc(CN[C@]23C4C5CC6C7C5C2C7[C@@](NCc2ccccc2)(C64)N3Cc2ccccc2)cc1 (some centres undefined),> 100,> 100,> 100,> 100,> 100,> 100,> 100,> 100,> 100,,,,,,,,,
CCCCCc1cc2cc3c(c(O)c2c(=O)[nH]1)C1(CCC3)C(O)=c2c(=O)c3c(=O)cc(OC)c(=O)c=3c(=O)c2=C1O (centres undefined),3.66,3.91,2.76,4.22,2.25,3.29,1.69,3.04,3.67,,,,,,,,,
CSC1C(=O)Nc2ccc3ccccc3c21 (centres undefined),35,41.9,29.4,35.5,92.4,35.9,57.4,49,70.5,,,,,,,,,
COC(=O)CCc1ccc2c(c1)C(=O)CC2,> 100,,> 100,,> 100,,> 100,> 100,99.9,,,,,,,,,
CCCCCCCCCCCCc1ccc(S(=O)(=O)O)cc1.[Zn+2],> 100,> 100,> 100,> 100,> 100,> 100,> 100,> 100,> 100,,,,,,,,,
COc1cc(C2=NNC(=O)c3ccccc3N2c2nc(-c3cccs3)nc3ccc(Br)cc23)cc(OC)c1OC,> 100,> 100,> 100,30.5,63.3,> 100,50.4,> 100,> 100,,,,,,,,,
COc1cc(C2SC(C)C(=O)N2c2ccc(-c3csc(NS(=O)(=O)c4ccc(Cl)c(OC)c4)n3)cc2)ccc1O (centres undefined),> 100,56.7,> 100,48.3,> 100,55.3,> 100,> 100,61,,,,,,,,,
O=C(CCCCCC(=O)N1CC(CCl)c2ccc([N+](=O)[O-])cc21)N1CC(CCl)c2ccc([N+](=O)[O-])cc21 (centres undefined),> 100,> 100,> 100,> 100,> 100,> 100,> 100,> 100,> 100,,,,,,,,,
C=C1C(=O)O[C@H]2[C@H]3O[C@@H](C[C@@H]12)[C@@]1(C)CC[C@H](O1)[C@H](C)CCC[C@H]3C,3.01,6.61,5.53,4.05,2.84,6.32,2.72,4.26,3.15,,,,,,,,,
Cc1ccc(C(=O)N(Cc2ccccc2)Cc2ccccc2)cc1N=NN(C)C,> 100,> 81.1,75,> 86.5,> 92.7,> 31.6,27.3,> 100,,,,,,,,,,
CCOC(=O)c1sc2nc(SC)nc3c2c1NCN3c1ccc(F)c(F)c1,> 59.8,> 100,> 100,> 86.5,> 100,> 100,> 100,> 100,,,,,,,,,,
Cc1c(-c2ccccc2)nn2cc(-c3ccccc3)nnc12,> 100,> 100,> 100,> 100,> 100,92.3,41.4,49.5,> 100,,,,,,,,,
O=[N+]([O-])c1ccc(C(Nc2ccccc2)P(c2ccccc2)c2ccccc2)cc1 (centres undefined),> 100,> 100,> 100,> 100,> 100,> 100,> 100,> 100,> 100,,,,,,,,,
COc1ccc(NC(=O)CC(=O)n2nc(C)c(N=Nc3cccc(C)c3)c2C)cc1,> 100,> 100,> 100,> 100,> 100,> 100,> 100,> 100,> 100,,,,,,,,,

Compound,TGI [1] [µM],TGI [2] [µM],TGI [3] [µM],TGI [4] [µM],TGI [5] [µM],TGI [6] [µM],TGI [7] [µM],TGI [8] [µM],TGI [9] [µM],GI50 [1] [µM],GI50 [2] [µM],GI50 [3] [µM],GI50 [4] [µM],GI50 [9] [µM],GI50 [5] [µM],GI50 [6] [µM],GI50 [7] [µM],GI50 [8] [µM]
COc1ccc(/C=C/C(=O)c2cc(C(C)(C)C)c(O)c(C(C)(C)C)c2)cc1OC,> 46.4,65.5,24.4,> 59.4,99.3,40.1,20.7,> 100,13.5,,,,,,,,,
CCCCCc1nnc(NS(=O)(=O)c2ccc(NC(=O)OCC(C)C)cc2)s1,> 100,> 100,> 100,> 100,> 100,> 100,63.7,> 100,,,,,,,,,,
C(=N\Nc1ccc(-c2nc3ccccc3[nH]2)cc1)/c1c(-c2ccc(Cc3ccccc3)cc2)[nH]c2ccccc12,39.2,> 100,98.4,> 41.3,> 79.8,> 54.3,> 52.8,> 100,41.2,,,,,,,,,
COc1cc([C@@H]2c3cc4c(cc3[C@@H](Nc3ccccc3C(=O)c3ccccc3)[C@H]3COC(=O)[C@H]23)OCO4)cc(OC)c1OC,> 78.7,> 100,> 100,0.653,> 100,,2.93,> 81.6,,,,,,,,,,
CCN(CC)C(=S)Nc1ccc(-c2cc3ccc(O)cc3oc2=O)cc1,> 100,> 100,,> 100,> 100,> 100,48.8,> 100,> 100,,,,,,,,,
CSCCCS/C1=C/CCCCCCCCCC1,> 100,> 100,> 100,> 100,> 100,> 100,> 100,,> 100,,,,,,,,,
CC1=NN(C(=O)CC(=O)Nc2ccccc2Cl)C(=O)C1N=Nc1ccc(S(=O)(=O)c2ccc(N=NC3C(=O)N(C(=O)CC(=O)Nc4ccccc4Cl)N=C3C)cc2)cc1 (centres undefined),> 100,> 100,> 100,> 100,> 100,> 100,> 100,> 100,> 100,,,,,,,,,
CCOC(=O)c1c(Br)c(-c2ccc(OC)cc2)c(Br)n1C,> 100,49.2,82.1,38.1,> 100,47.6,22.4,38.2,> 100,,,,,63.4,,13,,
CCOP(=O)(OCC)C(c1ccccc1)N(C(=O)NC(F)(F)F)c1cccc(F)c1 (centres undefined),> 100,> 100,,> 100,> 100,,> 100,> 100,> 100,,,,,,,,,
O=C(CCCCCCCCC(=O)N1C(=O)CC(=O)N(c2ccccc2)C1=S)N1C(=O)CC(=O)N(c2ccccc2)C1=S,> 100,> 100,> 100,> 100,> 100,> 100,> 100,,> 100,,,,,,,,,
O=c1[nH]c2ccccc2c(O)c1/C=N/C(=S)NCc1ccccc1,> 100,> 100,> 100,> 100,> 100,> 100,> 100,> 100,> 100,,,,,,,,,
C(/Cc1ccc2c(c1)OCO2)=N\NC1=NCCN1,> 100,> 100,> 100,> 100,> 100,> 100,> 100,> 100,> 100,,,,,,,,,
C/C(=C\c1ccccc1)C(=O)NCc1ccc(C(=O)NCCc2ccccc2)cc1,> 100,> 100,> 100,> 100,> 100,> 100,> 100,> 100,19.5,,,,,,,,,
O=C(NC1CCCCC1)c1cc2ccccc2cc1O,99,,> 100,> 100,,> 100,47.9,> 100,> 100,,,,,,,,,
COC(=O)[C@H]1NC(=O)CCSSC1(C)C,> 100,> 100,> 100,> 100,> 100,> 100,> 100,> 100,,,,,,,,,,
Cc1ccc(-n2cc(-c3ccc(Cl)cc3)c3c(N/N=C4\SCC(=O)N4C)ncnc32)cc1,10.9,> 100,> 100,> 100,> 100,11.2,15.5,> 100,,,,,,,,,,
COc1ccc2c(c1)C/C(=C\c1cccc3ccccc13)C2=O,> 100,> 100,,> 100,> 100,> 100,> 100,> 100,> 100,,,,,,,,,
Cc1ccc2c(=O)c(C(=O)Nn3c(C)csc3=S)c[nH]c2n1,> 100,> 100,> 100,> 100,> 100,> 100,> 100,> 100,,,,,,,,,,
C=CCN1C(=O)/C(=C/c2ccco2)N=C1SC1OC(COC(C)=O)C(OC(C)=O)C(OC(C)=O)C1OC(C)=O (centres undefined),> 100,,,> 100,> 100,> 100,> 100,> 100,> 100,,,,,,,,,
C[n+]1c(-c2ccc(/C=N/Nc3ccnc(N/N=C/c4ccc(-c5cn6ccsc6[n+]5C)cc4)n3)cc2)cn2ccsc21,79.9,> 100,,> 100,78.6,> 100,54.5,> 100,68.3,,,,,,,,,
CC(=O)c1ccccc1NCC(=O)Nn1cnc2ccc(S(=O)(=O)Nc3ccccc3C(C)=O)cc2c1=O,> 100,> 100,,> 100,> 100,> 100,,> 100,> 100,,,,,,,,,
Brc1ccc2c3c1[C@H]1O[C@H]1c1cccc(c1-3)[C@@H]1O[C@H]21,33.4,33.3,26.8,28.8,31.9,32.5,30.2,,26.3,,,,,,,,,
